Results from patent publication US9521847B2, “Synergistic weed control from applications of pyridine carboxylic acid herbicides and synthetic auxin herbicides and/or auxin transport inhibitors” (Dow AgroSciences LLC, priority 2014, dated 2016).

Columns and labels:
[1] = tested on: pigweed (AMARE, Amaranthus retroflexus); assay: Greenhouse postemergence trial, % visual injury; format: in vivo
[2] = tested on: wild mustard (Sinapis arvensis, SINAR); assay: Greenhouse postemergence trial, % visual injury; format: in vivo; conditions: fluroxypyr-MHE 70 g ae/ha
[3] = tested on: kochia (KCHSC, Kochia scoparia); assay: Greenhouse postemergence trial, % visual injury; format: in vivo
[4] = tested on: spring rape (Brassica napus, BRSNN); assay: Greenhouse postemergence trial, % visual injury; conditions: Brassica napus, post-emergence
[5] = tested on: blackgrass (Alopecurus myosuroides, ALOMY); assay: Greenhouse postemergence trial, % visual injury; format: in vivo; conditions: 70 g ae/ha
[6] = tested on: ivyleaf morningglory (Ipomoea hederacea, IPOHE); assay: Greenhouse postemergence trial, % visual injury
[7] = tested on: velvetleaf (Abutilon theophrasti, ABUTH); assay: Greenhouse postemergence trial, % visual injury; format: in vivo
[8] = tested on: winter rape (BRSNW, Brassica napus); assay: Greenhouse postemergence trial, % visual injury; format: in vivo; conditions: fluroxypyr-MHE 70 g ae/ha
[9] = tested on: kochia (KCHSC, Kochia scoparia); assay: Greenhouse postemergence trial, % visual injury; format: in vivo; conditions: fluroxypyr-MHE 100 g ae/ha
Description: Following the protocol in Example 1, compound 1 and compound 2 were combined with 2,4 D EHE (EC) and applied to kochia (KCHSC, Kochia scoparia) and the phytotoxicity of the herbicidal compositions was measured.
Following the protocol in Example 1, compound 1 (EC) and Compound 2 (SC) were combined with diflufenzopyr and applied to kochia (Kochia scoparia, KCHSC) and the phytotoxicity of the herbicidal composition was measured.

[10] = tested on: Russian thistle (Salsola iberica, SASKR); assay: Greenhouse postemergence trial, % visual injury; format: in vivo; conditions: fluroxypyr-MHE 70 g ae/ha
spring barley (HORVS) = assay: Greenhouse postemergence trial, crop phytotoxicity (% visual injury)
[11] = tested on: Canadian thistle (CIRAR, Cirsium arvense); assay: Greenhouse postemergence trial, % visual injury; conditions: Cirsium arvense, post-emergence;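 also: plants sprayed at second to third true leaf stage, injury scored visually 20-22 d later against solvent-blank sprayed controls, 0 meaning no injury and 100 complete kill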
[12] = tested on: wild oat (Avena fatua, VEFA); assay: Greenhouse postemergence trial, % visual injury; format: in vivo; conditions: AVEFA
winter wheat (TRZAW) = assay: Greenhouse postemergence trial, crop phytotoxicity (% visual injury); conditions: for % visual injury, Obs: TRZAW
[13] = tested on: nutsedge (Cyperus esculentus, CYPES); assay: Greenhouse postemergence trial, % visual injury; format: in vivo; conditions: CYPES, 70 g ae/ha
[14] = tested on: common lambsquarters (CHEAL, Chenopodium album L.); assay: Greenhouse postemergence trial, % visual injury; format: in vivo; conditions: Chenopodium album, post-emergence, read-out: % visual injury Obs
[15] = tested on: poinsettia (Euphorbia heterophylla, EPHHL); assay: Greenhouse postemergence trial, % visual injury; conditions: Euphorbia heterophylla, post-emergence, read-out: % visual injury, Obs
common rice (ORYSA) = assay: Greenhouse postemergence trial, crop phytotoxicity (% visual injury)
[16] = tested on: sunflower (Helianthus annus, HELAN); assay: Greenhouse postemergence trial, % visual injury; format: in vivo
[17] = tested on: barnyardgrass (Echinochloa crus-galli, ECHCG); assay: Greenhouse postemergence trial, % visual injury; format: in vivo; conditions: fluroxypyr-MHE 100 g ae/ha
maize (ZEAMX) = assay: Greenhouse postemergence trial, crop phytotoxicity (% visual injury); conditions: for % visual injury, Obs: ZEAMX
[18] = tested on: wild buckwheat (Polygonum convolvulus, POLCO); assay: Greenhouse postemergence trial, % visual injury; format: in vivo
[19] = tested on: large crabgrass (Digitaria sanguinalis, DIGSA); assay: Greenhouse postemergence trial, % visual injury; format: in vivo; conditions: Digitaria sanguinalis, post-emergence, read-out: % visual injury, Obs
[20] = tested on: wild pansy (Viola tricolor, VIOTR); assay: Greenhouse postemergence trial, % visual injury; conditions: for % visual injury, Obs: VIOTR
[21] = tested on: ivyleaved speedwell (Veronica hederifolia, VERHE); assay: Greenhouse postemergence trial, % visual injury; format: in vivo; conditions: aminocyclopyrachlor 100 g ae/ha
[22] = tested on: grain sorghum (Sorghum vulgare, SORVU); assay: Greenhouse postemergence trial, % visual injury; format: in vivo
[23] = tested on: common chickweed (Stellaria media, STEME); assay: Greenhouse postemergence trial, % visual injury; format: in vivo; conditions: aminopyralid-TIPA 5 g ae/ha
[24] = read-out: % visual injury (Obs)

With `CCCCCCC(C)OC(=O)COc1nc(F)c(Cl)c(N)c1Cl` (centres unmarked) [Fluroxypyr-MHE, fluroxypyr-meptyl, reference compound] the “% visual injury, Obs” value ([1]; AMARE, 70 g ae/ha) was 70%, the “% visual injury (Obs)” value ([1]; fluroxypyr-MHE 70 g ae/ha) was 50% and the “% visual injury (Obs)” value [2] was 85%. For the same compound, the “% visual injury (Obs)” value ([3]; fluroxypyr-MHE 70 g ae/ha) was 93%, the plant injury at 100 g/ha [4, 24] was 85% and the plant injury at 70 g/ha ([4]; read-out: % visual injury, Obs) was 15%. For the same compound, the “% visual injury, Obs” value [5] was 0%, the pest or weed control at 70 g/ha ([6]; Ipomoea, post-emergence, read-out: % visual injury, Obs) was 80% and the pest or weed control at 70 g/ha ([7]; Abutilon theophrasti, post-emergence, read-out: % visual injury, Obs) was 40%. The “% visual injury (Obs)” value ([7]; fluroxypyr-MHE 100 g ae/ha) was 70%, the “% visual injury (Obs)” value [8] was 95% and the “% visual injury (Obs)” value [9] was 65%. For the same compound, the “% visual injury (Obs)” value [10] was 95%, the “% visual injury Obs” value (spring barley (HORVS); crop, 70 g ae/ha alone, 20-22 d) was 20% and the “% visual injury (Obs)” value (spring barley (HORVS); fluroxypyr-MHE 70 g ae/ha) was 0%. The pest or weed control at 100 g/ha ([11]; read-out: % visual injury (Obs), fluroxypyr-MHE 100 g ae/ha) was 60%, the pest or weed control at 70 g/ha ([11]; read-out: % visual injury Obs, 70 g ae/ha alone, 20-22 d) was 10% and the “% visual injury, Obs” value ([12]; 70 g ae/ha) was 0%. For the same compound, the “% visual injury, Obs” value (winter wheat (TRZAW); 70 g ae/ha) was 0%, the “% visual injury (Obs)” value (winter wheat (TRZAW); fluroxypyr-MHE 70 g ae/ha) was 0% and the “% visual injury (Obs)” value (winter wheat (TRZAW); fluroxypyr-MHE 100 g ae/ha) was 0%. The “% visual injury, Obs” value [13] was 0%, the pest or weed control at 70 g/ha [14] was 10% and the pest or weed control at 70 g/ha [15] was 18%. The “% visual injury (Obs)” value (common rice (ORYSA); fluroxypyr-MHE 100 g ae/ha) was 0%, the “% visual injury (Obs)” value ([16]; fluroxypyr-MHE 100 g ae/ha) was 80% and the “% visual injury (Obs)” value [17] was 0%. The “% visual injury, Obs” value (maize (ZEAMX); 70 g ae/ha) was 0%, the “% visual injury (Obs)” value (maize (ZEAMX); fluroxypyr-MHE 100 g ae/ha) was 0% and the “% visual injury (Obs)” value ([18]; fluroxypyr-MHE 70 g ae/ha) was 75%. The pest or weed control at 70 g/ha [19] was 33%, the “% visual injury, Obs” value ([20]; 70 g ae/ha) was 80% and the “% visual injury (Obs)” value ([20]; fluroxypyr-MHE 100 g ae/ha) was 80%.
`Nc1nc(C2CC2)nc(C(=O)O)c1Cl` [aminocyclopyrachlor, reference compound] was tested, and the “% visual injury (Obs)” value [21] was 75%.
In the case of `Nc1cc(Cl)nc(C(=O)O)c1Cl` [aminopyralid-TIPA, aminopyralid-triisopropanolammonium, reference compound], the “% visual injury (Obs)” value ([3]; aminopyralid-TIPA 5 g ae/ha) is reported as 10%, the plant injury at 5 g/ha [4, 24] is reported as 10% and the “% visual injury (Obs)” value ([6]; aminopyralid-TIPA 5 g ae/ha) is reported as 60%. The “% visual injury, Obs” value ([22]; SORVU, 5 g ae/ha) was 5%, the “% visual injury (Obs)” value ([22]; aminopyralid-TIPA 5 g ae/ha) was 0% and the pest or weed control at 5 g/ha ([11]; read-out: % visual injury (Obs), aminopyralid-TIPA 5 g ae/ha) was 60%. The “% visual injury (Obs)” value [23] was 60%, the “% visual injury, Obs” value ([12]; 5 g ae/ha) was 0% and the “% visual injury, Obs” value (winter wheat (TRZAW); 5 g ae/ha) was 0%. The “% visual injury (Obs)” value (winter wheat (TRZAW); aminopyralid-TIPA 5 g ae/ha) was 0%, the pest or weed control at 5 g/ha [15] was 18% and the “% visual injury (Obs)” value (common rice (ORYSA); aminopyralid-TIPA 5 g ae/ha) was 0%. The “% visual injury (Obs)” value ([16]; aminopyralid-TIPA 5 g ae/ha) was 60%, the “% visual injury, Obs” value (maize (ZEAMX); 5 g ae/ha) was 3% and the “% visual injury (Obs)” value (maize (ZEAMX); aminopyralid-TIPA 5 g ae/ha) was 0%. For the same compound, the “% visual injury (Obs)” value ([18]; aminopyralid-TIPA 5 g ae/ha) was 65%, the pest or weed control at 5 g/ha [19] was 5% and the “% visual injury, Obs” value ([20]; 5 g ae/ha) was 48%. The “% visual injury (Obs)” value ([20]; aminopyralid-TIPA 5 g ae/ha) was 10%.
